The source of these data is patent publication US20250270255A1, “CASPASE-2 INHIBITOR COMPOUNDS” (KINTSUGI THERAPEUTICS S.L., priority 2021, published 2025).

For assay [1], the target named is T1, caspase-3 (Homo sapiens, UniProt P42574).
T1 construct: made in house
T1 sequence (P42574 29-175 limits assumed): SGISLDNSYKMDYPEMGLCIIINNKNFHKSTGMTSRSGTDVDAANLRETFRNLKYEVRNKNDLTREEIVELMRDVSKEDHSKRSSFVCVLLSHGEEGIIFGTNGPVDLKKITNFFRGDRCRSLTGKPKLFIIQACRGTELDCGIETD
T1 sequence (P42574 176-277 limits assumed): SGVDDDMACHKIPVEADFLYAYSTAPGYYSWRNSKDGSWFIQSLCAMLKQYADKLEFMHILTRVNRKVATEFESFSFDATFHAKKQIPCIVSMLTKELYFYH
The assay is described as follows: Determination of kobs/I inhibition parameter. The following applies: pH 7.3; pseudo-first-order conditions; substrate Ac-DEVD-ACC 100 uM; 37° C. Format: biochemical. As for the experimental part:
(§1) The measurement of kobs/l inhibition parameter (second order rate of enzyme inhibition) of synthesized inhibitors towards caspases-2, -3, and -8 was performed using a fMax spectrofluorimeter (Molecular Devices, Sunnyvale, CA, USA) operating in fluorescence kinetic mode in 96-well Corning (Corning, NY, USA) plates. Before kinetic analysis, all caspases were active site-titrated using the zVAD-fmk inhibitor (Cayman Chemical Company, Cat No. 14467). The caspases assay buffer was 10% w/v sucrose, […], 20 mM Pipes, 10 mM NaCl, 1 mM EDTA, and 10 mM DTT (pH=7.3). Buffers were prepared at room temperature, and all kinetic assays were performed at 37° C. The kobs/l parameter was measured under pseudo-first-order kinetic conditions ([I]>>[E]). […] The ACC fluorescence was monitored using 355 nm (excitation) and 460 nm (emission) wavelengths. […] At the same time in a separate tube, the caspase was preincubated in assay buffer at 37 C, and after 15 min, the enzyme was added to wells (60 uL per well, total reaction volume 100 uL) and the fluorescence was monitored for 30 min, starting immediately. Second-order rate of inhibition (Kobs/l) was determined in at least three independent experiments and presented as an average value. […]

Assay [2] deals with T2, caspase-8 (Homo sapiens, UniProt Q14790).
T2 construct: made in house
The assay is described as follows: Determination of kobs/I inhibition parameter. The following applies: pH 7.3; pseudo-first-order conditions; substrate Ac-LEHD-ACC 100 uM; 37° C. Format: biochemical. As for the experimental part: as §1

Assay [3] addresses T1, caspase-3. The assay is described as follows: Determination of Ki and IC50 inhibition parameters. Format: biochemical. Particulars: for Ki: Morrison equation, 15 min pre-incubation with inhibitor at 37 C. As for the experimental part: (§2) The detailed protocol for the expression and purification of human apoptotic caspases can be found elsewhere (Stennicke, 1999).
(§3) The measurement of Ki and IC50 inhibition parameter of synthesized inhibitors towards caspases-2, -3, and -8 was performed using a fMax spectrofluorimeter (Molecular Devices, Sunnyvale, CA, USA) operating in fluorescence kinetic mode in 96-well Corning (Corning, NY, USA) plates. Before kinetic analysis, all caspases were active site-titrated using the zVAD-fmk inhibitor (Cayman Chemical Company, Cat No. 14467). The caspases assay buffer was 10% w/v sucrose, […], 20 mM Pipes, 10 mM NaCl, 1 mM EDTA, and 10 mM DTT (pH=7.3). Buffers were prepared at room temperature, and all kinetic assays were performed at 37° C. The Ki parameter was measured using the Morrison equation (Copeland, 2000). For each caspase, an appropriate ACC-fluorogenic substrate was used to monitor substrate hydrolysis: NH-Idc-hGlu-Thr(Bzl)-Ser-Asp-ACC (50 uM) for caspase-2, Ac-DEVD-ACC (100 uM) for caspase-3 and Ac-LEHD-ACC (100 uM) for caspase-8. The ACC fluorescence was monitored using 355 nm (excitation) and 460 nm (emission) wavelengths. To meet the criteria for reversible inhibitor kinetics, the lowest inhibitor concentration was at least 4-fold higher that the caspase concentration in the assay. The caspase (60 uL) was first pre-warmed in the assay buffer in the 96-well plate for 15 min at 37 C and then pre-incubated with the inhibitor (20 uL) for another 15 min at 37 C. Next, the substrate (20 uL) was added to the enzyme-inhibitor mixture and the progress of reaction (ACC release) was monitored over time. The Ki parameter was calculated from Morrison equation, and the IC50 parameter was calculated using the formula: IC50=Ki×(1+[S]/Km], where the [S] is substrate concentration used in the assay and Km is a Michaelis-Menten constant for a substrate. All the measurements were performed at least three times and the data was analyzed using GraphPad Prism 7 software.

For assay [4], the target named is T2, caspase-8. Kind of assay: Determination of Ki and IC50 inhibition parameters. Format: biochemical. The following applies: for Ki: Morrison equation, 15 min pre-incubation with inhibitor at 37 C.
The target of assay [5] is T3, caspase-2 (Homo sapiens, UniProt P42575).
T3 sequence (P42575 170-325 limits assumed): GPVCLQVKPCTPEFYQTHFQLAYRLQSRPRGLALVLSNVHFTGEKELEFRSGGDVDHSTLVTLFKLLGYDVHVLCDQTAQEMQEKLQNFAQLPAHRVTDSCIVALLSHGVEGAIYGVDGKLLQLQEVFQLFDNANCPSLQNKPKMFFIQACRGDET
T3 sequence (P42575 348-452 limits assumed): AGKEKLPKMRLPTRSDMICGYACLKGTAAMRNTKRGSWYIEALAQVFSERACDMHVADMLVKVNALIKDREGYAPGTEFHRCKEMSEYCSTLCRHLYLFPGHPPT
Kind of assay: Determination of kobs/I inhibition parameter. Format: biochemical. Details: made in house. The following applies: pH 7.3; pseudo-first-order conditions; substrate NH-Idc-hGlu-Thr(Bzl)-Ser-Asp-ACC 50 uM; 37° C. The method, then: as §1

In assay [6] the target is T3, caspase-2. The assay is described as follows: Determination of Ki and IC50 inhibition parameters. The following applies: for Ki: Morrison equation, 15 min pre-incubation with inhibitor at 37 C; for IC50: calculated as IC50=Ki×(1+[S]/Km), substrate NH-Idc-hGlu-Thr(Bzl)-Ser-Asp-ACC 50 uM. The class given is biochemical. Details: made in house. As for the experimental part: as §2, §3

The target in assay [7] is T3, caspase-2. The assay is described as follows: Kinetic assay of substrates NH-Idc-P4-P3-Dab-Asp-ACC (Example 4). Format: biochemical. Particulars: substrate 10 μM; caspase-2 10 nM; 37° C. The method, then: Prior to kinetic assay, substrates (several L) were diluted in DMSO to the […] (working concentration). Next, 1 μL of such substrate was spot into the well of 96-well plate following by the addition of […] of caspase-2 in buffer. Immediately after the enzyme was added, the plate was placed in fluorescence plate reader and the fluorescence was measured over the time in a kinetic mode (excitation 355 nm, emission 460 nm). The liberation of fluorescence was carried out for 30 minutes, and only linear portion of the plot was taken for analysis to calculate the rate of the reaction. The rate of best cleaved substrate was set to 100% and all other substrates were adjusted accordingly (cleavage rate, %). The final concentration of substrate was 10 μM, and the final concentration of caspase-2 was 10 nM. The caspase-2 assay buffer was 20 mM Pipes, 100 mM NaCl, sucrose 10% (w/v), 10 mM DTT, pH 7.2-7.4. The caspase-2 was preincubated in buffer at 37° C. for 15 min before added to the substrate.

The subject of a further assay is HepG2 cells. The assay is described as follows: Intracellular lipid accumulation, in vitro cellular model of NASH. Format: cell-based. Details: inhibition of intracellular lipid-accumulation: dose or concentration left out as unconfirmed. The following applies: for inhibition of intracellular lipid-accumulation: NASH-triggered HepG2 cultures, FIG. 4. As for the experimental part: HepG2 cells (50.000 cells/well) were plated into 12-multiwell culture dishes on coverslips previously coated with collagen (2 mg/mL collagen solution (BD Biosciences) in PBS incubated at 37° C. for 30 min).
Cells were treated with a “NASH cocktail”: DMEM containing 4.5 mg/mL glucose supplemented with 10% (v/v) FBS, 1% (v/v) PenStrep and 2 mM L-glutamine plus fatty acids (100 μM sodium oleate and 100 μM palmitic acid), 100 nM insulin (all Sigma-Aldrich) and inflammatory cytokines (50 ng/ml tumor necrosis factor, TNF-α (Prospec), 25 ng/ml interleukin IL-1β (Petroteck) and 8 ng/ml transforming growth factor, TGF-β (R&D Systems)). The cells were exposed for 24h to this “NASH cocktail” and KIN compounds were concomitantly added at different concentrations.
At the end of treatments cells were washed with PBS and incubated with staining solution (BODIPY493/503 (Thermo Fisher Scientific) for 15 min at 37° C. Then cells were washed three times with PBS and were fixed in 4% PFA for 30 min at room temperature. After three additional washes with PBS, coverslips were mounted onto glass slides with a drop of Prolong® Gold antifade reagent (Invitrogen) with DAPI overnight at room temperature. Fluorescence micrographs were taken using an Axoimagen M1 microscope (Zeiss, Oberkochen, Germany) and fluorescent signals (DAPI and BODIPY) were quantified using ImageJ (n=10). The intracellular lipid load was calculated as a function of BODIPY™ 493/503 lipid dye area.
An in vitro cellular model of NASH was used to test the efficacy of caspase-2 inhibitors preventing intracellular accumulation of lipids. In this model, HepG2 cells are exposed for 24 h to “NASH conditions” including lipogenic (glucose, insulin, fatty acids) and inflammatory and pro-apoptotic (TNF-α, IL-1β, and TGF-β) triggers. […] This model has shown to correlate with human NASH pathology (Boeckmans et al. 2019).

Assay [8] concerns the target T3, caspase-2. The following applies: state of the art; cited from earlier work.
In assay [9] the target is T3, caspase-2. The following applies: Poreba et al. (2019); cited from earlier work.
[10] abbreviates: calculated as IC50=Ki×(1+[S]/Km), substrate Ac-DEVD-ACC 100 uM.
Setting [11] is: calculated as IC50=Ki×(1+[S]/Km), substrate Ac-LEHD-ACC 100 uM.

Read-outs that look alike come from different tables or passages of the source. Where a SMILES comes first, the peptide text is derived from it. The star is where a group is joined. AspCH2OBz(2,6-Me2) = Cc1cccc(C)c1C(=O)OCC(=O)[C@H](CC(=O)O)N*

T2 sequence (Q14790 217-374 limits assumed): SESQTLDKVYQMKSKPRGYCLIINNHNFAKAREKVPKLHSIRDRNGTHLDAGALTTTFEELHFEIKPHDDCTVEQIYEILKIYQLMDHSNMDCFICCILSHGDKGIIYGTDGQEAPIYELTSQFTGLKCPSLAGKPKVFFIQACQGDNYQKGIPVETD
T2 sequence (Q14790 385-479 limits assumed): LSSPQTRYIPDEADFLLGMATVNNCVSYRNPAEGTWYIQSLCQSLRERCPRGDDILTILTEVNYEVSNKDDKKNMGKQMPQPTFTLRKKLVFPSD

What is called kinact/KI is the second-order rate constant of inactivation. The IC50 is the concentration at which inhibition is half-maximal. Broadly, the Ki is a measure of affinity in units of concentration, obtained from inhibition or displacement. For `CC(=O)N[C@H](C(=O)N[C@@H](CC(=O)O)C(=O)N[C@H](C(=O)N[C@@H](C)C(=O)N[C@@H](CC(=O)O)C(=O)COC(=O)c1c(C)cccc1C)C(C)C)C(C)C` [Ac-Val-Asp-Val-Ala-Asp-AOMK, reference compound] (Ac-VDVA-{AspCH2OBz(2,6-Me2)}), the second-order inactivation constant (kinact/KI) at caspase-3 [1] is 1.36e+06 M⁻¹ s⁻¹; at caspase-8 [2], 98.4 M⁻¹ s⁻¹; at caspase-2 [5] it was 643 M⁻¹ s⁻¹. The values for the IC50 against caspase-3 [3], against caspase-8 [4] and on caspase-2 [6] were 0.1 nM, 16 nM and 4.9 nM, respectively. Moreover, the inhibition constant Ki was determined as 2.2 nM at caspase-8 [4] and 0.4 nM at caspase-2 [6].
Take NH-Idc-hLeu-Thr(Bzl)-Dab-Asc-ACC: at caspase-2 [7], the “RFU/s, %, average (cleavage rate, best substrate set to 100%)” value was found to be 0.0%.
With “NH-Idc-hGlu-Thr(Bzl)-Orn-Asp-AOMK [Compound 3]”, the Ki at caspase-3 [3] worked out at 13.8 nM; at caspase-8 [4], 43.3 nM; on caspase-2 [6], 0.7 nM. The IC50 is 91 nM at caspase-3 [3] (setting [10]), 320 nM at caspase-8 [4] (setting [11]) and 7.4 nM on caspase-2 [6]. The “inhibition of intracellular lipid-accumulation” value (from here on “inhibition”) in the assay on HepG2 cells is “significantly higher percentage of inhibition than NH-23-C2 compound”.
For Ac-VDVAD-aldehyde, the “potency against caspase-3 compared with caspase-2” value at caspase-2 [8] is “more potent against caspase-3 than to caspase-2”.
“NH-Idc-hGlu-Thr(Bzl)-Lys-Asp-AOMK [Compound 1]”: the Ki on caspase-3 [3] was 3.8 nM; on caspase-8 [4], 6.7 nM; on caspase-2 [6], 0.8 nM. Moreover, the half-maximal inhibitory concentration (IC50) is 24.8 nM at caspase-3 [3] (setting [10]), 49.8 nM at caspase-8 [4] (setting [11]) and 8.8 nM on caspase-2 [6]. Moreover, the “efficacy inhibiting intracellular lipid accumulation” value in the assay on HepG2 cells (HepG2 under NASH conditions, inhibitors at 10, 20 and […], FIG. 5) was “better efficacy than NH-23-C2”. In the assay with HepG2 cells, the “inhibition” value is “significantly higher percentage of inhibition than NH-23-C2 compound”.
For “NH-Idc-hGlu-Thr(Bzl)-Ser-Asp-AOMK [reference compound]”, the figures for the Ki on caspase-3 [3], at caspase-8 [4] and at caspase-2 [6] were 1.1 nM, 6.2 nM and 0.7 nM, respectively. Moreover, the IC50 on caspase-3 [3] (setting [10]) was 7.1 nM; on caspase-8 [4] (setting [11]), 46.2 nM; on caspase-2 [6], 7.9 nM. The Caspase-2 inhibitory activity result at caspase-2 [9] is recorded as “highest Caspase-2 inhibitory activity among the assayed compounds”. At caspase-2 [9], the “selectivity for Caspase-3” value was “no selectivity for Caspase-3”. The “selectivity for Caspase-8” value on caspase-2 [9] was “limited selectivity for Caspase-8”.
Turning to “NH-Idc-hGlu-Thr(Bzl)-Dab-Asp-AOMK [Compound 2]”, the Ki on caspase-3 [3] amounted to 29.3 nM; on caspase-8 [4], 209 nM; on caspase-2 [6], 1.1 nM. For the same molecule, the IC50 at caspase-3 [3] (setting [10]) was 193 nM; at caspase-8 [4] (setting [11]) it was 1540 nM; on caspase-2 [6] it was 12 nM. The “inhibition” value in the assay on HepG2 cells is “significantly higher percentage of inhibition than NH-23-C2 compound”.
